Measured values: BigSolDB 2.1

O=C(O)CCCC[C@@H]1SC[C@@H]2NC(=O)N[C@@H]21
Details | solubility (mole fraction)
in DMF, 298.65 K | 0.00356
in DMF, 303.25 K | 0.00413
in DMF, 308.15 K | 0.00497
in DMF, 313.15 K | 0.00603
in DMF, 318.15 K | 0.0075
in DMF, 323.25 K | 0.00902
in DMF, 328.15 K | 0.0107
in DMF, 333.15 K | 0.0128
in DMSO, 298.15 K | 0.0378
in DMSO, 303.15 K | 0.0425
in DMSO, 308.15 K | 0.0479
in DMSO, 313.15 K | 0.053
in DMSO, 318.05 K | 0.0582
in DMSO, 322.75 K | 0.0633
in DMSO, 327.65 K | 0.0687
in DMSO, 332.85 K | 0.0748
in acetic acid, 298.15 K | 0.00226
in acetic acid, 303.15 K | 0.00283
in acetic acid, 308.15 K | 0.0035
in acetic acid, 313.25 K | 0.00424
in acetic acid, 317.95 K | 0.00509
in acetic acid, 323.45 K | 0.00646
in acetic acid, 327.85 K | 0.00766
in acetic acid, 333.25 K | 0.00922
in ethanol, 298.15 K | 6.35e-05
in ethanol, 302.95 K | 8.69e-05
in ethanol, 308.85 K | 0.000133
in ethanol, 313.95 K | 0.000176
in ethanol, 318.45 K | 0.00023
in ethanol, 323.55 K | 0.000309
in ethanol, 329.35 K | 0.000442
in ethanol, 333.85 K | 0.000582
in methanol, 298.15 K | 6.92e-05
in methanol, 302.75 K | 9.37e-05
in methanol, 308.05 K | 0.000143
in methanol, 313.25 K | 0.000208
in methanol, 317.85 K | 0.000298
in methanol, 323.55 K | 0.00046
in methanol, 327.65 K | 0.000601
in methanol, 332.95 K | 0.000862
in water, 298.15 K | 4.97e-06
in water, 303.15 K | 8.18e-06
in water, 308.05 K | 1.28e-05
in water, 312.75 K | 2.06e-05
in water, 318.55 K | 3.52e-05
in water, 323.15 K | 5.42e-05
in water, 328.95 K | 9.12e-05
in water, 332.95 K | 0.000129
